Experimental data: US5153318A, “3'-Azido nucleoside compound” (Burroughs Wellcome Co., priority 1989, dated 1992)

How the values were obtained:
HIV-1 (strain 3B) = test: Anti-HIV-1 activity, reversal of cytopathic effect in MT4 cells (propidium iodide dye uptake); assay type: cell-based; conditions: Human immunodeficiency virus 1, MT4, 120 h, 100XTCID50, five days, protection of 50% of the cells from cell killing
Procedure: i) Anti-HIV activity was determined by measuring the ability of the compound to reverse the cytopathic effect of HIV infection. This was determined by a quantitative assessment of cell growth monitored at the fifth day post infection by a propidium iodide dye uptake test. MT4 cells were incubated with 100XTCID50 of HIV-1 (strain 3B) or HIV-2 (Zagury strain) for one hour prior to addition of compound in six different concentrations varying from 2 to 200 μM. The cells were allowed to incubate for five days at 37° C. On day five, NP-40, a detergent, was added to a final concentration of 0.5% immediately prior to analysis. Cell number was determined using a method which measures the fluorescence of a dye (propidium iodide) which binds to DNA. Since the amount of DNA is directly proportional to cell number, this fluorescence assay is an indication of cell growth. While uninfected cells double in cell number several times during the five days duration of the assay. HIV-infected cells grow very little, if at all.

human hepatitis B virus = test: Anti-HBV activity in human HBV producer cell line of HepG2, 2.2.15; assay type: cell-based; conditions: HepG2 2.2.15 cells, ten days; criterion at least 100-fold reduction of Dane particles and similar decrease of intracellular replicative intermediates
Procedure: ii) The human HBV producer cell line of HepG2, 2.2.15, described and characterized by Sells et al., PNAS 84:1005, 1987 and J. Virol. […] This cell line was utilized in vitro to identify compounds with anti-HBV activity.
To test compounds for antiviral activity, monolayer cultures were treated with compound. […], for ten days. Supernatant media containing extracellular virion DNA (Dane particles) were harvested on days three, six and ten, treated with proteinase K (1 mg/mL) and sodium dodecyl sulfate (1%), and incubated at 50° C. for one hour. DNA was extracted with equal volumes of phenol followed by chloroform and then precipitated by ammonium acetate and propanol. […] After precipitation by ammonium acetate and propanol, the intracellular DNA precipitate was dissolved, cut by restriction endonuclease, Hind III, applied to agarose gel and then treated as described by Southern to determine the quantity of replicative intermediate forms. The antiviral effect of the drug was determined by measuring at least a 100-fold reduction of the amount of Dane particles extruded into the culture medium and a similar decrease in the intracellular replicative intermediates.

| Compound | IC50 (HIV-1 (strain 3B)) | inhibition of human hepatitis B virus (human hepatitis B virus) |
| --- | --- | --- |
| [N-]=[N+]=N[C@H]1C[C@H](n2cnc3c(OCc4ccccc4)nc(N)nc32)O[C@@H]1CO [Example 6b, 2-Amino-9-(3-azido-2,3-dideoxy-β-D-erythro-pentofuranosyl)-6-benzyloxy-9H-purine] | 8.9 µM |  |
| CN(C)c1nc(N)nc2c1ncn2[C@H]1C[C@H](N=[N+]=[N-])[C@@H](CO)O1 [Example 7b, 2-Amino-9-(3-azido-2,3-dideoxy-β-D-erythro-pentofuranosyl)-6-dimethylamino-9H-purine] |  | strong inhibition |
